Data published in ChEMBL document CHEMBL4041522, “Comprehensive review on various strategies for antimalarial drug discovery” (2017).

Key:
Format in all cases: functional
Plasmodium [1] = assay: In vivo antiparasitic activity against Plasmodium sp. assessed as parasite clearance time
[2] = In vivo antiparasitic activity against Toxoplasma sp. assessed as parasite clearance time
[3] = In vivo antiparasitic activity against Babesia sp. assessed as parasite clearance time
[4] = In vivo antiparasitic activity against Pneumocystis sp. assessed as parasite clearance time
Plasmodium [5] = assay: In vivo antiparasitic activity against Plasmodium sp. assessed as fever clearance time
[6] = In vivo antiparasitic activity against Toxoplasma sp. assessed as fever clearance time
[7] = In vivo antiparasitic activity against Babesia sp. assessed as fever clearance time
[8] = In vivo antiparasitic activity against Pneumocystis sp. assessed as fever clearance time

Measured: Time

CCC[C@@H]1C[C@@H](C(=O)N[C@@H]([C@H]2O[C@H](SC)[C@H](O)[C@@H](O)[C@H]2O)[C@H](C)Cl)N(C)C1 [CLINDAMYCIN]
3 to 5 days: Plasmodium [5] | [6] | [7] | [8]
4 to 6 days: all other assays above
